Reference: patent US20090047221A1 (NIPRI LIMITED, priority 2004, published 2009)

Tested on: cancer cell line MDA-MB-468
Test: Combination index with known cancer drugs against proliferation (Calcusyn software)
Type: cell-based
Settings: MDA-MB-468
Outline: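 MTT proliferation assay: cells exposed continuously to drug for 96 h at 37° C, 5% CO2, screening range 1-200 μg/ml, then MTT 4 h, DMSO solubilisation, absorbance 570 nm. Synergy with known drugs given as combination index (Calcusyn).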

CC1(C)Cc2ccc(C(=O)N[C@@H](Cc3ccccc3)C(=O)O)c(O)c2C(=O)O1 [ALM-74, L-Phenyl Alanine Amide of Compound ALM-73]
Combination Index (Cisplatin 1 × 10^−2 mol/L, ALM-74 0.1 μg/ml): 0.006 | Combination Index (Cisplatin 1 × 10^−2 mol/L, ALM-74 0.5 μg/ml): 0.008 | Combination Index (Cisplatin 1 × 10^−2 mol/L, ALM-74 1.0 μg/ml): 0.082 | Combination Index (Cisplatin 1 × 10^−2 mol/L, ALM-74 5.0 μg/ml): 0.130 | Combination Index (Cisplatin 1 × 10^−3 mol/L, ALM-74 0.1 μg/ml): No | Combination Index (Cisplatin 1 × 10^−3 mol/L, ALM-74 0.5 μg/ml): No | Combination Index (Cisplatin 1 × 10^−3 mol/L, ALM-74 1.0 μg/ml): 0.039 | Combination Index (Cisplatin 1 × 10^−3 mol/L, ALM-74 5.0 μg/ml): 0.346 | Combination Index (Cisplatin 1 × 10^−4 mol/L, ALM-74 0.1 μg/ml): No | Combination Index (Cisplatin 1 × 10^−4 mol/L, ALM-74 0.5 μg/ml): No | Combination Index (Cisplatin 1 × 10^−4 mol/L, ALM-74 1.0 μg/ml): 0.061 | Combination Index (Cisplatin 1 × 10^−4 mol/L, ALM-74 5.0 μg/ml): 1.031 | Combination Index (Cisplatin 1 × 10^−5 mol/L, ALM-74 0.1 μg/ml): No | Combination Index (Cisplatin 1 × 10^−5 mol/L, ALM-74 0.5 μg/ml): No | Combination Index (Cisplatin 1 × 10^−5 mol/L, ALM-74 1.0 μg/ml): 0.069 | Combination Index (Cisplatin 1 × 10^−5 mol/L, ALM-74 5.0 μg/ml): 0.778 | Combination Index (Cisplatin 1 × 10^−6 mol/L, ALM-74 0.1 μg/ml): No | Combination Index (Cisplatin 1 × 10^−6 mol/L, ALM-74 0.5 μg/ml): No | Combination Index (Cisplatin 1 × 10^−6 mol/L, ALM-74 1.0 μg/ml): 0.083 | Combination Index (Cisplatin 1 × 10^−6 mol/L, ALM-74 5.0 μg/ml): No | Combination Index (Cisplatin 1 × 10^−7 mol/L, ALM-74 0.1 μg/ml): No | Combination Index (Cisplatin 1 × 10^−7 mol/L, ALM-74 0.5 μg/ml): No | Combination Index (Cisplatin 1 × 10^−7 mol/L, ALM-74 1.0 μg/ml): 0.092 | Combination Index (Cisplatin 1 × 10^−7 mol/L, ALM-74 5.0 μg/ml): No | Combination Index (Cisplatin 1 × 10^−8 mol/L, ALM-74 0.1 μg/ml): No | Combination Index (Cisplatin 1 × 10^−8 mol/L, ALM-74 0.5 μg/ml): No | Combination Index (Cisplatin 1 × 10^−8 mol/L, ALM-74 1.0 μg/ml): 0.091 | Combination Index (Cisplatin 1 × 10^−8 mol/L, ALM-74 5.0 μg/ml): No | Combination Index (Cisplatin 1 × 10^−9 mol/L, ALM-74 0.1 μg/ml): 0.895 | Combination Index (Cisplatin 1 × 10^−9 mol/L, ALM-74 0.5 μg/ml): No | Combination Index (Cisplatin 1 × 10^−9 mol/L, ALM-74 1.0 μg/ml): 0.090 | Combination Index (Cisplatin 1 × 10^−9 mol/L, ALM-74 5.0 μg/ml): No | Combination Index (Doxorubicin 1 × 10^−4 mol/L, ALM-74 0.1 μg/ml): No | Combination Index (Doxorubicin 1 × 10^−4 mol/L, ALM-74 0.5 μg/ml): 0.277 | Combination Index (Doxorubicin 1 × 10^−4 mol/L, ALM-74 1.0 μg/ml): No | Combination Index (Doxorubicin 1 × 10^−4 mol/L, ALM-74 5.0 μg/ml): No | Combination Index (Doxorubicin 1 × 10^−5 mol/L, ALM-74 0.1 μg/ml): 0.001 | Combination Index (Doxorubicin 1 × 10^−5 mol/L, ALM-74 0.5 μg/ml): 0.007 | Combination Index (Doxorubicin 1 × 10^−5 mol/L, ALM-74 1.0 μg/ml): 0.376 | Combination Index (Doxorubicin 1 × 10^−5 mol/L, ALM-74 5.0 μg/ml): 1.069 | Combination Index (Etoposide 1 × 10^−4 mol/L, ALM-74 0.1 μg/ml): 0.355 | Combination Index (Etoposide 1 × 10^−4 mol/L, ALM-74 0.5 μg/ml): 0.402 | Combination Index (Etoposide 1 × 10^−4 mol/L, ALM-74 1.0 μg/ml): 0.307 | Combination Index (Etoposide 1 × 10^−4 mol/L, ALM-74 5.0 μg/ml): 0.349 | Combination Index (Etoposide 1 × 10^−5 mol/L, ALM-74 0.1 μg/ml): No | Combination Index (Etoposide 1 × 10^−5 mol/L, ALM-74 0.5 μg/ml): 0.613 | Combination Index (Etoposide 1 × 10^−5 mol/L, ALM-74 1.0 μg/ml): 0.031 | Combination Index (Etoposide 1 × 10^−5 mol/L, ALM-74 5.0 μg/ml): 0.053 | Combination Index (Etoposide 1 × 10^−6 mol/L, ALM-74 0.1 μg/ml): No | Combination Index (Etoposide 1 × 10^−6 mol/L, ALM-74 0.5 μg/ml): No | Combination Index (Etoposide 1 × 10^−6 mol/L, ALM-74 1.0 μg/ml): 0.015 | Combination Index (Etoposide 1 × 10^−6 mol/L, ALM-74 5.0 μg/ml): 0.200 | Combination Index (Etoposide 1 × 10^−7 mol/L, ALM-74 0.1 μg/ml): No | Combination Index (Etoposide 1 × 10^−7 mol/L, ALM-74 0.5 μg/ml): No | Combination Index (Etoposide 1 × 10^−7 mol/L, ALM-74 1.0 μg/ml): 0.016 | Combination Index (Etoposide 1 × 10^−7 mol/L, ALM-74 5.0 μg/ml): 0.231 | Combination Index (Etoposide 1 × 10^−8 mol/L, ALM-74 0.1 μg/ml): No | Combination Index (Etoposide 1 × 10^−8 mol/L, ALM-74 0.5 μg/ml): No | Combination Index (Etoposide 1 × 10^−8 mol/L, ALM-74 1.0 μg/ml): 0.016 | Combination Index (Etoposide 1 × 10^−8 mol/L, ALM-74 5.0 μg/ml): 0.261 | Combination Index (Etoposide 1 × 10^−9 mol/L, ALM-74 0.1 μg/ml): No | Combination Index (Etoposide 1 × 10^−9 mol/L, ALM-74 0.5 μg/ml): No | Combination Index (Etoposide 1 × 10^−9 mol/L, ALM-74 1.0 μg/ml): 0.019 | Combination Index (Etoposide 1 × 10^−9 mol/L, ALM-74 5.0 μg/ml): 0.251 | Combination Index (Etoposide 1 × 10^−10 mol/L, ALM-74 0.1 μg/ml): 0.724 | Combination Index (Etoposide 1 × 10^−10 mol/L, ALM-74 0.5 μg/ml): No | Combination Index (Etoposide 1 × 10^−10 mol/L, ALM-74 1.0 μg/ml): 0.022 | Combination Index (Etoposide 1 × 10^−10 mol/L, ALM-74 5.0 μg/ml): 0.265 | Combination Index (Irinotecan 1 × 10^−3 mol/L, ALM-74 0.1 μg/ml): 0.916 | Combination Index (Irinotecan 1 × 10^−3 mol/L, ALM-74 0.5 μg/ml): 0.121 | Combination Index (Irinotecan 1 × 10^−3 mol/L, ALM-74 1.0 μg/ml): No | Combination Index (Irinotecan 1 × 10^−3 mol/L, ALM-74 5.0 μg/ml): No | Combination Index (Irinotecan 1 × 10^−4 mol/L, ALM-74 0.1 μg/ml): 0.189 | Combination Index (Irinotecan 1 × 10^−4 mol/L, ALM-74 0.5 μg/ml): 0.302 | Combination Index (Irinotecan 1 × 10^−4 mol/L, ALM-74 1.0 μg/ml): 0.051 | Combination Index (Irinotecan 1 × 10^−4 mol/L, ALM-74 5.0 μg/ml): 0.051 | Combination Index (Irinotecan 1 × 10^−5 mol/L, ALM-74 0.1 μg/ml): No | Combination Index (Irinotecan 1 × 10^−5 mol/L, ALM-74 0.5 μg/ml): No | Combination Index (Irinotecan 1 × 10^−5 mol/L, ALM-74 1.0 μg/ml): 0.025 | Combination Index (Irinotecan 1 × 10^−5 mol/L, ALM-74 5.0 μg/ml): 0.616 | Combination Index (Irinotecan 1 × 10^−6 mol/L, ALM-74 0.1 μg/ml): 0.518 | Combination Index (Irinotecan 1 × 10^−6 mol/L, ALM-74 0.5 μg/ml): No | Combination Index (Irinotecan 1 × 10^−6 mol/L, ALM-74 1.0 μg/ml): 0.055 | Combination Index (Irinotecan 1 × 10^−6 mol/L, ALM-74 5.0 μg/ml): 0.589 | Combination Index (Irinotecan 1 × 10^−7 mol/L, ALM-74 0.1 μg/ml): 0.067 | Combination Index (Irinotecan 1 × 10^−7 mol/L, ALM-74 0.5 μg/ml): No | Combination Index (Irinotecan 1 × 10^−7 mol/L, ALM-74 1.0 μg/ml): 0.054 | Combination Index (Irinotecan 1 × 10^−7 mol/L, ALM-74 5.0 μg/ml): 0.726 | Combination Index (Irinotecan 1 × 10^−8 mol/L, ALM-74 0.1 μg/ml): 0.046 | Combination Index (Irinotecan 1 × 10^−8 mol/L, ALM-74 0.5 μg/ml): No | Combination Index (Irinotecan 1 × 10^−8 mol/L, ALM-74 1.0 μg/ml): 0.066 | Combination Index (Irinotecan 1 × 10^−8 mol/L, ALM-74 5.0 μg/ml): 0.895 | Combination Index (Irinotecan 1 × 10^−9 mol/L, ALM-74 0.1 μg/ml): 0.049 | Combination Index (Irinotecan 1 × 10^−9 mol/L, ALM-74 0.5 μg/ml): No | Combination Index (Irinotecan 1 × 10^−9 mol/L, ALM-74 1.0 μg/ml): 0.078 | Combination Index (Irinotecan 1 × 10^−9 mol/L, ALM-74 5.0 μg/ml): 0.973 | Combination Index (Irinotecan 1 × 10^−10 mol/L, ALM-74 0.1 μg/ml): 0.22 | Combination Index (Irinotecan 1 × 10^−10 mol/L, ALM-74 0.5 μg/ml): No | Combination Index (Irinotecan 1 × 10^−10 mol/L, ALM-74 1.0 μg/ml): 0.086 | Combination Index (Irinotecan 1 × 10^−10 mol/L, ALM-74 5.0 μg/ml): 0.720
